Test results taken from PubChem BioAssay AID1508612.

Test: passive permeability, PAMPA, ADME assay (AID 1508612)
Details: pH 7.4, 30.0 min, 50.0 µM
Molecule CCCCCn1c(=O)[nH]c2cc(C(=O)NCCCN3CCCCC3)ccc2c1=O has a Papp of 27.5 ×10⁻⁶ cm/s.
For C#CCNC(=O)c1nc(-c2cccnc2)c2ccccn12, the Papp was 507 ×10⁻⁶ cm/s.
Molecule COc1ccc(-n2nc(C3CCCN(C(=O)Nc4ccccc4)C3)[nH]c2=O)cc1 (stereo not drawn) has a Papp of 360 ×10⁻⁶ cm/s.
For FC(F)(F)c1cccc(Sc2nc(-c3ccccc3)nnc2C(F)(F)F)c1, the Papp was 17 ×10⁻⁶ cm/s.
With CN1C(=O)CN=C(c2ccc[nH]2)c2cc(Cl)ccc21 the Papp was 714 ×10⁻⁶ cm/s.
With CCn1nc(C2CCN(C(=O)CCO)CC2)nc1-c1cnc(N)c(-c2nnc(C(C)(C)C)o2)n1 the Papp was 188 ×10⁻⁶ cm/s.
CCc1ccc(NC(=O)c2[nH]c(C)c(C(C)=O)c2C)cc1S(=O)(=O)Nc1cccc(C#N)c1 gave a Papp of 178 ×10⁻⁶ cm/s.
c1ccc2[nH]c(Nc3nc(-c4ccncc4)nc4ccccc34)nc2c1 showed a Papp of over 1000 ×10⁻⁶ cm/s.
Work on COc1ccc(OCc2ccc(-c3nc(C#N)c(NC(C)c4ccccc4)o3)o2)cc1 (stereo not drawn) yielded a Papp of 20.9 ×10⁻⁶ cm/s.
CC1=Nc2cc(C(=O)NCc3ccccc3Cl)ccc2Sc2c(C)ccc(C)c21 showed a Papp of 161 ×10⁻⁶ cm/s.
In the case of CNc1nccc(-c2cccc3ccccc23)n1, the Papp is reported as 905 ×10⁻⁶ cm/s.
In the case of c1ccc2c(NC3CCCCC3)nc(-c3ccncc3)nc2c1, the Papp is reported as over 1000 ×10⁻⁶ cm/s.
Cc1sc2c(c1C)C(c1ccc(Cl)cc1)=N[C@@H](CC(=O)OC(C)(C)C)c1nnc(C)n1-2 gave a Papp of over 1000 ×10⁻⁶ cm/s.
Oc1c(C(Nc2nccs2)c2ccc(C(F)(F)F)cc2)ccc2cccnc12 (stereo not drawn) showed a Papp of 41.6 ×10⁻⁶ cm/s.
Work on Cc1cccc(N2CCN(c3nc4ccccc4c4nnc(C)n34)CC2)c1C yielded a Papp of 887 ×10⁻⁶ cm/s.
For Cc1ccc2nc(-c3ccccn3)c(Nc3ccccc3C)n2c1, the Papp was over 1000 ×10⁻⁶ cm/s.
Work on CN(C)c1cc(-c2nc(Nc3ccc(F)c(F)c3)c3ccccc3n2)ccn1 yielded a Papp of over 1000 ×10⁻⁶ cm/s.
O=C(O)c1ccnc2cc(C(OCCN3CCCCC3)c3ccccc3Cl)[nH]c12 (stereo not drawn) gave a Papp of under 1 ×10⁻⁶ cm/s.
CC(C)C(=O)Nc1cccc(NC(=O)c2cc3ccccc3o2)c1 gave a Papp of 874 ×10⁻⁶ cm/s.
Nc1c(C(=O)Nc2ccc(Cl)c(C(F)(F)F)c2)sc2nc3c(cc12)N1CCC3CC1 gave a Papp of over 1000 ×10⁻⁶ cm/s.
For CCOC(=O)N1CCN(Cc2nc3c(c(=O)n(C)c(=O)n3C)n2Cc2cccc(C)c2)CC1, the Papp was 477 ×10⁻⁶ cm/s.
In the case of Cc1onc(-c2ccc(F)cc2)c1COc1ccc(C(=O)N2CCS(=O)(=O)CC2)cn1, the Papp is reported as 258 ×10⁻⁶ cm/s.
Work on COC(=O)c1ccnc(-c2cc(C(=O)Nc3ccc(C4(N)CC4)cc3)ccn2)c1 yielded a Papp of over 1000 ×10⁻⁶ cm/s.
Molecule CC(=O)c1c(C)n(-c2ccccc2)c2ccc(O)cc12 has a Papp of 779 ×10⁻⁶ cm/s.
COC(=O)[C@]12CCC(C)(C)C[C@@H]1[C@@H]1C(=O)C=C3[C@@]4(C)C=C(C#N)C(=O)C(C)(C)[C@@H]4CC[C@@]3(C)[C@]1(C)CC2 showed a Papp of 16.2 ×10⁻⁶ cm/s.
In the case of Cc1nnc2n1-c1ccc(Cl)cc1C(c1ccccc1)=NC2, the Papp is reported as 125 ×10⁻⁶ cm/s.
CCOC(=O)c1ccc(-c2ccc3ncnc(NCCc4cnc[nH]4)c3c2)o1 showed a Papp of over 1000 ×10⁻⁶ cm/s.
For CCc1cccc(NC(=O)c2cc(-c3ccc[nH]3)n[nH]2)c1, the Papp was 87.7 ×10⁻⁶ cm/s.
COc1ccc(C2Nc3ccccc3C(=O)N2Cc2cccnc2)cc1COc1c(C)cc(NC(C)=O)cc1C (stereo not drawn) showed a Papp of over 1000 ×10⁻⁶ cm/s.
In the case of O=C(Nc1ccccc1)C1CCN(c2ncc(-c3ccc4c(c3)OCCCO4)s2)CC1, the Papp is reported as 917 ×10⁻⁶ cm/s.
In the case of CN1C(=O)c2ccccc2[S@](=O)c2ccc(C(=O)NCCc3cccs3)cc21, the Papp is reported as 626 ×10⁻⁶ cm/s.
Cc1ccccc1-c1nc(NCc2ccc(-c3cccnc3)cc2)c2ccccc2n1 gave a Papp of 547 ×10⁻⁶ cm/s.
Cc1cc(SCc2sc(-c3ccc(C(F)(F)F)cc3)nc2C)ccc1OCC(=O)O gave a Papp of 520 ×10⁻⁶ cm/s.
COc1ccc(-c2cc3nccn3c(Nc3ncccc3C(N)=O)n2)cc1OC gave a Papp of 26.4 ×10⁻⁶ cm/s.
With N#Cc1ccc(S(=O)(=O)Nc2cnccc2C(=O)Nc2nc(-c3ccccc3)cs2)cc1 the Papp was 279 ×10⁻⁶ cm/s.
Molecule Cc1ccccc1-c1nc(NCc2cccs2)c2ccccc2n1 has a Papp of 406 ×10⁻⁶ cm/s.
Work on CCOC(=O)c1[nH]c(C)c(CCC(=O)N2CCN(c3cc(Cl)ccc3C)CC2)c1C yielded a Papp of over 1000 ×10⁻⁶ cm/s.
Work on Nc1c(S(=O)(=O)c2cccs2)c2nc3ccccc3nc2n1Cc1ccccc1 yielded a Papp of over 1000 ×10⁻⁶ cm/s.
